Values quoted from earlier work as cited in patent US11173186B2, “Dosing regime and formulations for type B adenovirus” (PSIOXUS THERAPEUTICS LIMITED, priority 2013, dated 2021).

Conditions: interim analysis; intratumoural talimogene laherparepvec vs subcutaneous GM-CSF

Q: With “GM-CSF: subcutaneously administered GM-CSF, comparator in the OPTiM trial” as the substance, how does the durable response rate read?
A: 2%
